According to patent US12084461B2, “Bicyclic heteroaryl derivatives” (Hoffmann-La Roche Inc., priority 2018, dated 2024):

Tested on: γ-secretase
Test: Cellular γ-secretase assay (inhibition of Aβ42 secretion, AlphaLisa)
Type: cell-based
Settings: human neuroglioma H4 cells overexpressing human APP695 Swedish double mutation, 24 h compound incubation
Description: Human neuroglioma H4 cells overexpressing human APP695 with the Swedish double mutation (K595N/M596L) were plated at 30,000 cells/well/100 μL in 96-well plates in IMDM containing 10% FCS, 0.2 mg/L Hygromycin B and incubated at 37° C., 5% CO2. 3-4 h post plating, compounds are a diluted in media and 50 μL is added as […] concentrate to achieve the final concentration. Compound incubation is performed for 24 h. Final doses typically range from 4 μM down to 0.0013 μM in half-log steps resulting in an eight-point dose response curve.
Appropriate controls using vehicle only and reference compound were applied to this assay. The final concentration of Me2SO was 0.4%.
After incubation at 37° C., 5% CO2, the supernatant was subjected to quantification of secreted Aβ42 by the means of an AlphaLisa assay kit (Human Amyloid beta 1-42 Kit: Cat # AL203C, Perkin Elmer). 20 μL of the cell culture supernatant was transferred to an assay plate. Then 10 μL, of a mixture of the AlphaLisa coupled capture antibody and the biotinylated detection antibody was added and incubated for 3 h at RT while softly shaking the assay plate. After a further addition of 20 μL of the Donor beads the assay plate was incubated for 30 min at RT and constant shaking without exposure to direct light. The assay plate was then read on a Paradigm AlphaLisa Reader using the build-in program with excitation at 680 nm and emission at 570 nm. The measured signals were then used to calculate IC50 values for inhibition of Aβ42 secretion by nonlinear regression fit analysis using XLfit 5.3 software (from IDBS company).

In order of rising IC50:
1. COc1cc(N2C[C@H]3CC[C@@H](C2)[C@@H]3Nc2nc3n(n2)CCCO[C@@H]3c2cc(F)cc(Cl)c2)ccn1 (single isomer, unassigned) [Example 35]  6.58 nM
2. Cc1cc(N2C[C@H]3CC[C@@H](C2)[C@@H]3Nc2nc3n(n2)CCCO[C@@H]3c2cc(F)cc(Cl)c2)ncn1 (single isomer, unassigned) [Example 33]  10.9 nM
3. COc1cc(N2C[C@H]3CC[C@@H](C2)[C@@H]3Nc2nc3n(n2)CCO[C@@H]3c2cc(F)cc(Cl)c2)ccn1 [Example 29, (8R)-8-(3-chloro-5-fluoro-phenyl)-N-[(1R,5S)-3-(2-methoxy-4-pyridyl)-3-azabicyclo[3.2.1]octan-8-yl]-6,8-dihydro-5H-[1,2,4]triazolo[5,1-c][1,4]oxazin-2-amine]  11.2 nM
4. COc1cc(N2C[C@H]3CC[C@@H](C2)[C@@H]3Nc2nc3n(n2)CCCOC3c2ccc(F)c(F)c2F)ccn1 (single isomer, unassigned) [Example 38]  12.7 nM
5. COc1cc(N2C[C@H]3CC[C@@H](C2)[C@@H]3Nc2nc3n(n2)CCCOC3c2cc(F)cc(Cl)c2)ccn1 (single isomer, unassigned) [Example 36]  12.9 nM
6. COc1cc(N2C[C@H]3CC[C@@H](C2)[C@@H]3Nc2nc3n(n2)CCCO[C@@H]3c2cc(F)cc(Cl)c2)cnn1 (single isomer, unassigned) [Example 19]  13.2 nM
7. COc1cc(N2C[C@H]3CC[C@@H](C2)[C@@H]3Nc2nc3n(n2)CCCO[C@@H]3c2ccc(F)c(F)c2F)ccn1 [Example 37, (9R)—N-[(1R,5S)-3-(2-methoxy-4-pyridyl)-3-azabicyclo[3.2.1]octan-8-yl]-9-(2,3,4-trifluorophenyl)-5,6,7,9-tetrahydro-[1,2,4]triazolo[5,1-c][1,4]oxazepin-2-amine]  15.7 nM
8. COc1cc(N2C[C@H]3CC[C@@H](C2)[C@@H]3Nc2nc3n(n2)CCO[C@@H]3c2cc(F)cc(Cl)c2)cnn1 [Example 21, (8R)-8-(3-chloro-5-fluoro-phenyl)-N-[(1R,5S)-3-(6-methoxypyridazin-4-yl)-3-azabicyclo[3.2.1]octan-8-yl]-6,8-dihydro-5H-[1,2,4]triazolo[5,1-c][1,4]oxazin-2-amine]  16.6 nM
9. Cc1cc(N2C[C@H]3CC[C@@H](C2)[C@@H]3Nc2nc3n(n2)CCCOC3c2ccc(F)c(F)c2F)ncn1 (single isomer, unassigned) [Example 40]  19.2 nM
10. Cc1cc(N2C[C@H]3CC[C@@H](C2)[C@@H]3Nc2nc3n(n2)CCCOC3c2cc(F)cc(Cl)c2)ncn1 (single isomer, unassigned) [Example 34]  19.6 nM
11. Cc1cc(N2C[C@H]3CC[C@@H](C2)[C@@H]3Nc2nc3n(n2)CCO[C@@H]3c2cc(F)cc(Cl)c2)ncn1 [Example 25, (8R)-8-(3-chloro-5-fluoro-phenyl)-N-[(1R,5S)-3-(6-methylpyrimidin-4-yl)-3-azabicyclo[3.2.1]octan-8-yl]-6,8-dihydro-5H-[1,2,4]triazolo[5,1-c][1,4]oxazin-2-amine]  20.8 nM
12. Cc1cc(N2C[C@H]3CC[C@@H](C2)[C@@H]3Nc2nc3n(n2)CCCOC3c2cc(F)cc(F)c2)ncn1 (single isomer, unassigned) [Example 9]  21.7 nM
13. COc1cc(N2C[C@H]3CC[C@@H](C2)[C@@H]3Nc2nc3n(n2)CCCO[C@@H]3c2ccc(F)c(F)c2F)cnn1 (single isomer, unassigned) [Example 13]  21.8 nM
14. COc1cc(N2C[C@H]3CC[C@@H](C2)[C@@H]3Nc2nc3n(n2)CCCO[C@@H]3c2cc(F)cc(F)c2)cnn1 [Example 11, (9R)-9-(3,5-difluorophenyl)-N-[(1R,5S)-3-(6-methoxypyridazin-4-yl)-3-azabicyclo[3.2.1]octan-8-yl]-5,6,7,9-tetrahydro-[1,2,4]triazolo[5,1-c][1,4]oxazepin-2-amine]  22.1 nM
15. Cc1cc(N2C[C@H]3CC[C@@H](C2)[C@@H]3Nc2nc3n(n2)CCCO[C@@H]3c2cc(F)cc(Cl)c2)cnn1 [Example 15, (9R)-9-(3-chloro-5-fluoro-phenyl)-N-[(1R,5S)-3-(6-methylpyridazin-4-yl)-3-azabicyclo[3.2.1]octan-8-yl]-5,6,7,9-tetrahydro-[1,2,4]triazolo[5,1-c][1,4]oxazepin-2-amine]  23.9 nM
16. COc1cc(N2C[C@H]3CC[C@@H](C2)[C@@H]3Nc2nc3n(n2)CCCOC3c2cc(F)cc(Cl)c2)cnn1 (single isomer, unassigned) [Example 20]  34.5 nM
17. Cc1cc(N2C[C@H]3CC[C@@H](C2)[C@@H]3Nc2nc3n(n2)CCCO[C@@H]3c2cc(F)cc(F)c2)ncn1 (single isomer, unassigned) [Example 7]  43.3 nM
18. Cc1cc(N2C[C@H]3CC[C@@H](C2)[C@@H]3Nc2nc3n(n2)CCCO[C@@H]3c2ccc(F)c(F)c2F)ncn1 (single isomer, unassigned) [Example 39]  43.9 nM
19. COc1cc(N2C[C@H]3CC[C@@H](C2)[C@@H]3Nc2nc3n(n2)CCCOC3c2ccc(F)c(F)c2F)cnn1 (single isomer, unassigned) [Example 14]  45.1 nM
20. Cc1cc(N2C[C@H]3CC[C@@H](C2)[C@@H]3Nc2nc3n(n2)CCCO[C@@H]3c2cccc(F)c2F)ncn1 (single isomer, unassigned) [Example 5]  47.7 nM
21. COc1cc(N2C[C@H]3CC[C@@H](C2)[C@@H]3Nc2nc3n(n2)CCCOC3c2cccc(F)c2F)cnn1 (single isomer, unassigned) [Example 2]  51.1 nM
22. COc1cc(N2C[C@H]3CC[C@@H](C2)[C@@H]3Nc2nc3n(n2)CCO[C@@H]3c2ccc(F)c(F)c2F)ccn1 (single isomer, unassigned) [Example 31]  52 nM
23. Cc1cc(N2C[C@H]3CC[C@@H](C2)[C@@H]3Nc2nc3n(n2)CCO[C@@H]3c2ccc(F)c(F)c2F)ncn1 [Example 23, (8R)—N-[(1R,5S)-3-(6-methylpyrimidin-4-yl)-3-azabicyclo[3.2.1]octan-8-yl]-8-(2,3,4-trifluorophenyl)-6,8-dihydro-5H-[1,2,4]triazolo[5,1-c][1,4]oxazin-2-amine]  59.7 nM
24. Cc1cc(N2C[C@H]3CC[C@@H](C2)[C@@H]3Nc2nc3n(n2)CCCOC3c2cccc(F)c2F)ncn1 (single isomer, unassigned) [Example 6]  62.3 nM
25. Cc1cc(N2C[C@H]3CC[C@@H](C2)[C@@H]3Nc2nc3n(n2)CCCOC3c2cc(F)cc(Cl)c2)cnn1 (single isomer, unassigned) [Example 16]  62.6 nM
26. Cc1cc(N2C[C@H]3CC[C@@H](C2)[C@@H]3Nc2nc3n(n2)CCCOC3c2ccc(F)cc2F)ncn1 (single isomer, unassigned) [Example 10]  71.8 nM
27. COc1cc(N2C[C@H]3CC[C@@H](C2)[C@@H]3Nc2nc3n(n2)CCOC3c2cc(F)cc(Cl)c2)cnn1 (single isomer, unassigned) [Example 22]  71.8 nM
28. COc1cc(N2C[C@H]3CC[C@@H](C2)[C@@H]3Nc2nc3n(n2)CCCOC3c2cc(F)cc(F)c2)cnn1 (single isomer, unassigned) [Example 12]  72.3 nM
29. Cc1cc(N2C[C@H]3CC[C@@H](C2)[C@@H]3Nc2nc3n(n2)CCCO[C@@H]3c2ccc(F)cc2F)ncn1 (single isomer, unassigned) [Example 8]  74.9 nM
30. COc1cc(N2C[C@H]3CC[C@@H](C2)[C@@H]3Nc2nc3n(n2)CCCOC3c2ccc(F)cc2F)cnn1 (single isomer, unassigned) [Example 4]  76.2 nM
31. COc1cc(N2C[C@H]3CC[C@@H](C2)[C@@H]3Nc2nc3n(n2)CCO[C@@H]3c2ccc(F)c(F)c2F)cnn1 [Example 27, (8R)—N-[(1R,5S)-3-(6-methoxypyridazin-4-yl)-3-azabicyclo[3.2.1]octan-8-yl]-8-(2,3,4-trifluorophenyl)-6,8-dihydro-5H-[1,2,41]triazolo[5,1-c][1,4]oxazin-2-amine]  77.4 nM
32. Cc1cc(N2C[C@H]3CC[C@@H](C2)[C@@H]3Nc2nc3n(n2)CCOC3c2ccc(F)c(F)c2F)ncn1 (single isomer, unassigned) [Example 24]  78.9 nM
33. Cc1cc(N2C[C@H]3CC[C@@H](C2)[C@@H]3Nc2nc3n(n2)CCCO[C@@H]3c2ccc(F)c(F)c2F)cnn1 (single isomer, unassigned) [Example 17]  82.3 nM
34. COc1cc(N2C[C@H]3CC[C@@H](C2)[C@@H]3Nc2nc3n(n2)CCCO[C@@H]3c2cccc(F)c2F)cnn1 (single isomer, unassigned) [Example 1]  84.7 nM
35. COc1cc(N2C[C@H]3CC[C@@H](C2)[C@@H]3Nc2nc3n(n2)CCCO[C@@H]3c2ccc(F)cc2F)cnn1 [Example 3, (9R)-9-(2,4-difluorophenyl)-N-[(1R,5S)-3-(6-methoxypyridazin-4-yl)-3-azabicyclo[3.2.1]octan-8-yl]-5,6,7,9-tetrahydro-[1,2,4]triazolo[5,1-c][1,4]oxazepin-2-amine]  87.4 nM
36. COc1cc(N2C[C@H]3CC[C@@H](C2)[C@@H]3Nc2nc3n(n2)CCOC3c2ccc(F)c(F)c2F)cnn1 (single isomer, unassigned) [Example 28]  95.9 nM
